Measured values from PMC9471048, “The signaling and selectivity of α‐adrenoceptor agonists for the human α2A, α2B and α2C‐adrenoceptors and comparison with human α1 and β‐adrenoceptors” (Pharmacology Research & Perspectives, 2022).
Like-named read-outs stand apart in the source and are kept apart here.

Assays:
α1A‐adrenoceptor = target: T1, α1A‐adrenoceptor (Homo sapiens, UniProt P35348)
T1 sequence (P35348 1-466): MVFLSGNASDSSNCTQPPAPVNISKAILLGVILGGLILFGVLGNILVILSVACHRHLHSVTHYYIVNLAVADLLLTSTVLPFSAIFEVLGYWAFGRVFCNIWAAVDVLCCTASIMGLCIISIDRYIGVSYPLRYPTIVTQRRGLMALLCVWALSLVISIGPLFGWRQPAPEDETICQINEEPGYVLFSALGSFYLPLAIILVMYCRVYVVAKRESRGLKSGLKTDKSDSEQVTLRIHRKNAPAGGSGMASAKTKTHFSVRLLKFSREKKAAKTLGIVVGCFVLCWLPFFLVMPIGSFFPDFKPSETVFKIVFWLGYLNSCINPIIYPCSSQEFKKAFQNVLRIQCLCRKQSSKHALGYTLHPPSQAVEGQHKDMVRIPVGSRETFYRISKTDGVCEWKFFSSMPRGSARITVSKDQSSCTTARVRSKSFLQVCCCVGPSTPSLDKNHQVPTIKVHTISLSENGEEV

human α2C‐adrenoceptor [1] = target: T2, human α2C‐adrenoceptor (Homo sapiens, UniProt P18825); settings: for % inhibition, CRE‐SPAP (with forskolin): % inhibition from the 3 μM forskolin control, mean ± SEM; for Log EC50 (Gs), CRE‐SPAP (without forskolin): CRE‐SPAP production in the absence of forskolin
T2 sequence (P18825 1-462): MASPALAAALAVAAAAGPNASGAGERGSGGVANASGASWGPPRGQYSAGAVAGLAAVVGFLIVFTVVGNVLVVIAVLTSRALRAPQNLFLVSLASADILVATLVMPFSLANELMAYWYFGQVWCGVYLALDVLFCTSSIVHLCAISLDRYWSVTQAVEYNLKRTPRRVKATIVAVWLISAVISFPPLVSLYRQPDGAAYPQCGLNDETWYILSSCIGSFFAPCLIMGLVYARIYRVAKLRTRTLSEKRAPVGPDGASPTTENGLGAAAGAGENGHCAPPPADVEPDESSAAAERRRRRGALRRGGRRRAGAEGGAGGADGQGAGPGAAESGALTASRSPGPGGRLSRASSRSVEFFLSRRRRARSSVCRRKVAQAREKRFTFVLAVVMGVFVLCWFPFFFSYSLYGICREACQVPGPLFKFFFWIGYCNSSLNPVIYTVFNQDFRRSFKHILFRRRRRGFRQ

human α2C‐adrenoceptor [2] = target: T2, human α2C‐adrenoceptor; assay: 3H‐rauwolscine whole cell binding in CHO‐α2C cells; parameters: expressed in transfected cells; host or cells: CHO-K1 with CRE-SPAP reporter; settings: 3H‐rauwolscine whole cell binding
human α2C‐adrenoceptor [3] = target: T2, human α2C‐adrenoceptor; assay: ERK1/2‐phosphorylation in CHO‐α2C cells; format: cell-based; parameters: expressed in transfected cells; host or cells: CHO-K1 with CRE-SPAP reporter; settings: CHO‐α2C cells; for % 10 μM PDBu, ERK1/2‐phosphorylation: maximum response compared to 10 μM PDBu, mean ± SEM
[4] = test system: parent CHO cells (no transfected receptor); assay: ERK1/2‐phosphorylation in parent CHO cells; format: cell-based, Chinese hamster; settings: Cricetulus griseus, read-out: log EC50, ERK1/2‐phosphorylation in parent CHO cells (converted)
α1D‐adrenoceptor = target: T3, α1D‐adrenoceptor (Homo sapiens, UniProt P25100); settings: CHO-α1D cells
T3 sequence (P25100 1-572): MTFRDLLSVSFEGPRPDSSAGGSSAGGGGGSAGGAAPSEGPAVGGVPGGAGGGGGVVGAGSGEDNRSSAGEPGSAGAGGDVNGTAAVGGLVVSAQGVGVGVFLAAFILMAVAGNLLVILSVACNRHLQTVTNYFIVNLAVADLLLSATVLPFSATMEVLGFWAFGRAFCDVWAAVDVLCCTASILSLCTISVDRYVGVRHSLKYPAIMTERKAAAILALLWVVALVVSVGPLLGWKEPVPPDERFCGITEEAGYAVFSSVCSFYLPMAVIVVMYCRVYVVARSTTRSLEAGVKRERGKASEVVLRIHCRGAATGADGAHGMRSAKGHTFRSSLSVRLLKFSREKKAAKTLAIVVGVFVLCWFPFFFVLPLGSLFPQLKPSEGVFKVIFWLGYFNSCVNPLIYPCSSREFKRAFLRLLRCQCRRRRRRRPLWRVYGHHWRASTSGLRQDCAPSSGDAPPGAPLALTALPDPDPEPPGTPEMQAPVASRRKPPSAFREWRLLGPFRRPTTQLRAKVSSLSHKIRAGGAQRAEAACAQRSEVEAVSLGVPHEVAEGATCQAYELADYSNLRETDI

human α2A‐adrenoceptor [5] = target: T4, human α2A‐adrenoceptor (Homo sapiens, UniProt P08913)
T4 sequence (P08913 1-465): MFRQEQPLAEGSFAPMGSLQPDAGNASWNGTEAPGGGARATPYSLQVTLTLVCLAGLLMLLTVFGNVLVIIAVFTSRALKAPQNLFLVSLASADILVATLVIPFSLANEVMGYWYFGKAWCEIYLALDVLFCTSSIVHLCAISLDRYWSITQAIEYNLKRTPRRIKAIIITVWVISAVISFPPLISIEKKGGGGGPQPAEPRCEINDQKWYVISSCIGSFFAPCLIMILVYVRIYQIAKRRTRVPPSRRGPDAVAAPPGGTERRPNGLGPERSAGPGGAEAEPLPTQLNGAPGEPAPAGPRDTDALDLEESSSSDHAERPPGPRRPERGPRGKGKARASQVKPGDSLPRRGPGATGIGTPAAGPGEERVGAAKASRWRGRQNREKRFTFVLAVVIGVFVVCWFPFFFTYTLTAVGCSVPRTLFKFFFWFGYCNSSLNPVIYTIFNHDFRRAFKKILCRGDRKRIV

human α2A‐adrenoceptor [6] = target: T4, human α2A‐adrenoceptor; assay: ERK1/2‐phosphorylation in CHO‐α2A cells; format: cell-based; parameters: expressed in transfected cells; host or cells: CHO-K1 with CRE-SPAP reporter; settings: CHO‐α2A, maximum response compared to 10 μM PDBu

Compound: CS(=O)(=O)Nc1c(O)ccc2c1CCCC2C1=NCCN1 (stereo not shown) [A61603]
- higher α1A‐affinity than for any other α‐adrenoceptor (α1A‐adrenoceptor): 1000 fold
- Log efficacy ratio (KD/IC50) (human α2C‐adrenoceptor [1]): >2.68
- % inhibition, CRE‐SPAP (with forskolin) (human α2C‐adrenoceptor [1]; CHO‐α2C cells): 80.5 ± 3.0%
- Log EC50 (Gs), CRE‐SPAP (without forskolin) (human α2C‐adrenoceptor [1]; CHO‐α2C cells): No response
- Log IC50 (Gi), CRE‐SPAP (with forskolin) (human α2C‐adrenoceptor [1]; CHO‐α2C cells, inhibition of 3 μM forskolin‐stimulated CRE‐SPAP production, given as negative log IC50, mean ± SEM): −6.68 ± 0.09
- IC50 (human α2C‐adrenoceptor [2]; no KD obtained, read-out: IC50 in binding, CHO‐α2C): > 100 µM
- IC50 (log) in binding, no KD obtained (human α2C‐adrenoceptor [2]; CHO‐α2C cells, printed as log value in the Log KD column): IC50 > −4
- % 10 μM PDBu, ERK1/2‐phosphorylation (human α2C‐adrenoceptor [3]): 149.2 ± 30.3%
- Log EC50, ERK1/2‐phosphorylation (human α2C‐adrenoceptor [3]; given as negative log EC50, mean ± SEM): −7.26 ± 0.15

Compound: CC(C)C[C@H]1C(=O)N2CCC[C@H]2[C@]2(O)O[C@](NC(=O)[C@@H]3C=C4c5cccc6[nH]c(Br)c(c56)C[C@H]4N(C)C3)(C(C)C)C(=O)N12 [Bromocriptine]
- EC50 [4]: 117 nM
- specific binding inhibited (early plateau) (α1D‐adrenoceptor): 71.2 ± 3.4%

Compound: Clc1ccc2nsnc2c1NC1=NCCN1 [Tizanidine]
- % 3 μM forskolin, CRE‐SPAP (without forskolin) (human α2A‐adrenoceptor [5]): 15.8 ± 4.7%
- % inhibition, CRE‐SPAP (with forskolin) (human α2C‐adrenoceptor [1]; CHO‐α2C cells): 72.1 ± 4.4%
- Log EC50 (Gs), CRE‐SPAP (without forskolin) (human α2C‐adrenoceptor [1]; CHO‐α2C cells): No response
- IC50 (human α2C‐adrenoceptor [1]; Log IC50 (Gi), CRE‐SPAP (with forskolin), CHO‐α2C cells, inhibition of 3 μM forskolin‐stimulated CRE‐SPAP production, given as negative log IC50, mean ± SEM): 302 nM
- Kd (human α2C‐adrenoceptor [2]; living cells, negative log KD, mean ± SEM, read-out: Log KD, CHO‐α2C (converted)): 1480 nM
- Kd (human α2C‐adrenoceptor [2]; CHO‐α2C cells, given as negative log KD, mean only (SEM in Table 4), read-out: Log KD (converted)): 1480 nM
- % 10 μM PDBu, ERK1/2‐phosphorylation (human α2A‐adrenoceptor [6]): 135.7 ± 17.3%
- % 10 μM PDBu, ERK1/2‐phosphorylation (human α2C‐adrenoceptor [3]): 133.6 ± 17.9%
